From US20080003244A1, “Inflammation and Oxidative Stress Reducing Compostion for Topical or Oral Administration” (priority 2006, published 2008)
Where “and” joins values, the source holds several entries; their conditions need not be identical. Equal entries are not always repeated.

Test system: A549 human lung epithelial cells
Experiment: H2O2 oxidative stress protection, live cell count (trypan blue dye exclusion)
Assay type: cell-based
Details: for Live cell Number: 4 hours, A549
Method: A549 human lung epithelial cells were seeded and treated with 2.5 mM H202 with or without lipid for 4 hours. Cells were washed and trypsinized and live cells were counted. Test Sample Composition—The extract product titled LP 0817, example 1, was mixed with water at a 30% concentration yielding a compostion of Lipid Extract 23%, Lipoic Acid 7%, Water 70%. Lipid extract (produced by alcohol extraction process cited in example 1 without lipoic acid component)—23% lipids/77% water and lipoic acid at 7% concentration tested separately. 210 mg lipoic acid was dissolved with 2.8 ml. DMSO. (93% DMSO and 7% Lipoic Acid.) This is 100% solution. This working solution was diluted to 5%, 2%, 1% to use for hydrogen peroxide study. A549 human lung epithelial cells (1.5×10^5/well in 6 well dish) were seeded and treated with 2.5 mM H202 with or without lipid for 4 hours. Cells were washed and trypsinized and live cells (trypan blue dye exclusion assay) were counted. Cell number is represented as 10^4.

O=C(O)CCCCC1CCSS1 (stereo not shown) [Lipoic Acid 7%, lipoic acid]
Live cell Number (7% lipoic acid in DMSO working solution diluted to 1% + H2O2 (2.5 mM)): 13 10^4 and 14 10^4
Live cell Number (7% lipoic acid in DMSO working solution diluted to 2% + H2O2 (2.5 mM)): 14 10^4
Live cell Number (7% lipoic acid in DMSO working solution diluted to 5% + H2O2 (2.5 mM)): 10 10^4 and 12 10^4
Protection of cells from H2O2 treatment/damage (A549, 2.5 mM H2O2, 4 hours): Neither Lipid extract nor Lipoic acid protected the cells from H202 damage
